Results on twelve molecules are retold here after patent US8410065B2, “Macrolides and their use” (Basilea Pharmaceutica AG, priority 2008, dated 2013).

This test has as its system human PDE4. The experiment in a line: PDE4 inhibition, in vitro enzymatic IMAP FP assay. It is filed as biochemical. Particulars: PDE4 partially purified from undifferentiated human monocytic cells (U-937); fluorescently labeled cAMP substrate; 90 minutes at room temperature; fluorescence polarization. The procedure: PDE4 specifically hydrolyzes cAMP and releases the product AMP. The potency of PDE inhibition by said agents is determined in an in vitro enzymatic assay. The assay is commercially available (IMAP™ FP assay Molecular Devices Corp. (MDS)) and is optimized for the use of human PDE4. Fluorescently labeled cAMP is hydrolyzed by PDE4 and in a second step, binding of labeled product to a large binding partner allowed product detection by fluorescence polarization (FP) measurements.
PDE4 is partially purified from undifferentiated human monocytic cells (U-937) according to Thorpy et al. 1992 (J. Pharmacol. Exp. Ther. 263: 1195). […] In addition, PDE4 preparations are validated by inhibition studies with PDE4-specific and unspecific PDE inhibitors.
Stock solutions of test compounds are made in DMSO and diluted in assay buffer (10 mM Tris-HCl, 10 mM MgCl2, 0.1% BSA 0.05% NaN3, pH 7.2) to the desired concentrations. The solutions used in the assay contained test compound in assay buffer with 2% DMSO.
10 μl of substrate (at a concentration recommended by the manufacturer) are mixed with 5 μl of appropriately diluted PDE and 5 μl of test compound solution. 5 μl of reaction buffer with 2% DMSO are used for control reactions. […] After incubation for 90 minutes at room temperature, 60 μl of binding reagent are added as specified by the manufacturer. Binding is allowed to proceed for 30 minutes and fluorescence polarization is measured. Dose dependence of PDE inhibition is measured by assaying dilution series of test compounds in duplicates. IC50 values are determined from the measured activities by curve fitting.
In general terms: Fluorescence polarisation rises when a labelled molecule tumbles more slowly, as on binding a larger partner.

Structures are written as SMILES.

One may read the IC50 as the concentration that inhibits the measured activity by half. High values mean weaker potency in that assay, low ones greater potency in that assay.

For the molecule `CC[C@H]1OC(=O)[C@H](C)[C@@H](O)[C@H](C)[C@@H](O[C@@H]2O[C@H](C)C=C[C@H]2O)[C@](C)(OC)C[C@@H](C)C(=O)[C@H](C)[C@H]2[C@H](SCCn3cnc4c(N)ncnc43)C(=O)O[C@@]21C` (stereo in doubt) [Example 1], the IC50 amounted to 4800 nM. In other words, the single-digit micromolar range.

Take `CC[C@H]1OC(=O)[C@H](C)[C@@H](O[C@H]2C[C@@](C)(OC)[C@@H](O)[C@H](C)O2)[C@H](C)[C@@H](O[C@@H]2O[C@H](C)C[C@H](N(C)CC(C)C)[C@H]2O)[C@](C)(OC)C[C@@H](C)C(=O)[C@H](C)[C@H]2[C@H](SCCn3cnc4c(N)ncnc43)C(=O)O[C@@]21C` (stereo in doubt) [Example 2]: the IC50 amounted to 2800 nM.

With `CC[C@H]1OC(=O)[C@H](C)[C@@H](O[C@H]2C[C@@](C)(OC)[C@@H](O)[C@H](C)O2)[C@H](C)[C@@H](O[C@@H]2O[C@H](C)C[C@H](N(C)CC(C)C)[C@H]2O)[C@](C)(OC)C[C@@H](C)C(=O)[C@H](C)[C@H]2[C@H](SCCN(C(=O)c3ccncc3)c3ccc(OC)c(OC4CCCC4)c3)C(=O)O[C@@]21C` (stereo in doubt) [Example 3], the IC50 stood at 13600 nM.

Molecule `CC[C@H]1OC(=O)[C@H](C)[C@@H](O[C@H]2C[C@@](C)(OC)[C@@H](O)[C@H](C)O2)[C@H](C)[C@@H](O[C@@H]2O[C@H](C)C[C@@H](OC)[C@@H]2N(C)C)[C@](C)(OC)C[C@@H](C)C(=O)[C@H](C)[C@H]2[C@H](SCCn3cnc4c(N)ncc(C(=O)Nc5c(Cl)cncc5Cl)c43)C(=O)O[C@@]21C` (stereo in doubt) [Example 5] came in with a concentration for half-maximal inhibition (IC50) of 110 nM.

In turn, `CC[C@H]1OC(=O)[C@H](C)[C@@H](O[C@H]2C[C@@](C)(OC)[C@@H](O)[C@H](C)O2)[C@H](C)[C@@H](O[C@@H]2O[C@H](C)C[C@@H](OC)[C@@H]2N(C)C)[C@](C)(OC)C[C@@H](C)C(=O)[C@H](C)[C@H]2[C@H](SCCN(Cc3ccncc3)c3ccc(OC)c(OC4CCCC4)c3)C(=O)O[C@@]21C` (stereo in doubt) [Example 6] had an IC50 of 1400 nM.

`CC[C@H]1OC(=O)[C@H](C)[C@@H](O[C@H]2C[C@@](C)(OC)[C@@H](O)[C@H](C)O2)[C@H](C)[C@@H](O[C@@H]2O[C@H](C)C[C@@H](OC)[C@@H]2N(C)C)[C@](C)(OC)C[C@@H](C)C(=O)[C@H](C)[C@H]2[C@H](SCCN(Cc3c(Cl)cncc3Cl)c3ccc(OC)c(OC4CCCC4)c3)C(=O)O[C@@]21C` (stereo in doubt) [Example 7]: the IC50 turned out to be 140 nM.

`CC[C@H]1OC(=O)[C@H](C)[C@@H](O)[C@H](C)[C@@H](O[C@@H]2O[C@H](C)C[C@@H](OC)[C@@H]2N(C)C)[C@](C)(OC)C[C@@H](C)C(=O)[C@H](C)[C@H]2[C@H](SCCN(Cc3c(Cl)cncc3Cl)c3ccc(OC)c(OC4CCCC4)c3)C(=O)O[C@@]21C` (stereo in doubt) [Example 8] showed an IC50 of 220 nM.

In turn, `CC[C@H]1OC(=O)[C@H](C)[C@@H](O)[C@H](C)[C@@H](O[C@@H]2O[C@H](C)C[C@H](N(C)C)[C@H]2OC)[C@](C)(OC)C[C@@H](C)C(=O)[C@H](C)[C@H]2[C@H](SCCN(Cc3c(Cl)cncc3Cl)c3ccc(OC)c(OC4CCCC4)c3)C(=O)O[C@@]21C` (stereo in doubt) [Example 9] showed an IC50 of 300 nM.

For the molecule `CC[C@H]1OC(=O)[C@H](C)[C@@H](O)[C@H](C)[C@@H](O[C@@H]2O[C@H](C)C[C@@H](N3CCOCC3)[C@@H]2N(C)C)[C@](C)(OC)C[C@@H](C)C(=O)[C@H](C)[C@H]2[C@H](SCCN(Cc3c(Cl)cncc3Cl)c3ccc(OC)c(OC4CCCC4)c3)C(=O)O[C@@]21C` (stereo in doubt) [Example 12], 220 nM corresponded to half-maximal inhibition (IC50).

For the molecule `CC[C@H]1OC(=O)[C@H](C)[C@@H](O[C@H]2C[C@@](C)(OC)[C@@H](O)[C@H](C)O2)[C@H](C)[C@@H](O[C@@H]2O[C@H](C)C[C@H](N(C)C(C)=O)[C@H]2O)[C@](C)(OC)C[C@@H](C)C(=O)[C@H](C)[C@H]2[C@H](SCCOc3cc(C(=O)Nc4c(Cl)cncc4Cl)ccc3OC)C(=O)O[C@@]21C` (stereo in doubt) [Example 14], half-maximal inhibition (IC50) was put at 2.7 nM.

For the molecule `CC[C@H]1OC(=O)[C@H](C)[C@@H](O[C@H]2C[C@@](C)(OC)[C@@H](O)[C@H](C)O2)[C@H](C)[C@@H](O[C@@H]2O[C@H](C)C[C@H](N(C)C(=O)N3CCOCC3)[C@H]2O)[C@](C)(OC)C[C@@H](C)C(=O)[C@H](C)[C@H]2[C@H](SCCCOc3cc(C(=O)Nc4c(Cl)cncc4Cl)ccc3OC)C(=O)O[C@@]21C` (stereo in doubt) [Example 16], the midpoint of inhibition, the IC50, lay at 220 nM.

The molecule `CC[C@H]1OC(=O)[C@H](C)[C@@H](O[C@H]2C[C@@](C)(OC)[C@@H](O)[C@H](C)O2)[C@H](C)[C@@H](O[C@@H]2O[C@H](C)C[C@H](N(C)C(C)=O)[C@H]2O)[C@](C)(OC)C[C@@H](C)C(=O)[C@H](C)[C@H]2[C@H](SCCN(Cc3c(Cl)cncc3Cl)c3ccc(OC)c(OC4CCCC4)c3)C(=O)O[C@@]21C` [Example 10] returned an IC50 of 31 nM.
